From BindingDB's records for doi:10.7270/Q2ZC817P (The Scripps Research Institute Molecular Screening Center, 2007) come the findings set out here.

Structures can show the parent of a compound that is named as a salt. Some results are limits rather than exact numbers.

Sphingosine 1-phosphate receptor 1, sequence (P21453 whole entry): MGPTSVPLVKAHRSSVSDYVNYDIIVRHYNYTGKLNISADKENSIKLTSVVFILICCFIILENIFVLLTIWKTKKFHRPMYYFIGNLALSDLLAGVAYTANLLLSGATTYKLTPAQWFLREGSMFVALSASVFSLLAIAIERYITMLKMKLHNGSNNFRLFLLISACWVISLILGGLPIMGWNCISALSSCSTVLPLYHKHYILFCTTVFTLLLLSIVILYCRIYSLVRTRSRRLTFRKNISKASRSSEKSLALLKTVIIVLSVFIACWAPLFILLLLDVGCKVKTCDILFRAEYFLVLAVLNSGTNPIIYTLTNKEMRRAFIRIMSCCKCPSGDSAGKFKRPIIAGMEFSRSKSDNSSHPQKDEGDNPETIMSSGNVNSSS

One assay addresses Sphingosine 1-phosphate receptor 1 (Homo sapiens, UniProt P21453). As to the kind of experiment: S1P1 agonism potentiation – cell-based, potentiator mode, 60K MLSMR set, dose response (AID 466).
Settings: not given
As usually defined, the EC50 is the concentration giving half of the maximal effect. As for `Clc1ccc(OCc2nnc(-c3ccccc3Br)o2)c(Cl)c1` [2-(2-bromophenyl)-5-[(2,4-dichlorophenoxy)methyl]-1,3,4-oxadiazole], the EC50 was over 95 µM. Turning to `Clc1ccc(CSc2nnc(-c3ccncc3)o2)cc1` [2-[(4-chlorobenzyl)thio]-5-(4-pyridyl)-1,3,4-oxadiazole], the EC50 amounted to 3.58 µM.

For `Cc1noc(C)c1S(=O)(=O)N(CC(=O)Nc1ccc2c(c1)OCO2)c1ccc(C(C)C)cc1` [MLS000117405], the EC50 is over 95 µM. For the molecule `COc1ccc(S(=O)(=O)Cc2ccc(C(=O)N3CCN(c4cccc(C)c4C)CC3)o2)cc1` [MLS000120226], the EC50 was over 30 µM.

For the molecule `CCCc1cc(C(=O)Nc2sc(C)c(CC)c2C#N)no1` [MLS000116385], the EC50 amounted to 3.08 µM.

Turning to `COc1ccc(-n2nc3ccc(NS(C)(=O)=O)cc3n2)cc1Cl` [MLS000049114], the EC50 came out at 0.126 µM. On to `Cc1ccc(-n2c(C)cc(C(=O)CSc3nnnn3C)c2C)cc1` [1-[2,5-dimethyl-1-(4-methylphenyl)-3-pyrrolyl]-2-[(1-methyl-5-tetrazolyl)thio]ethanone], for which the EC50 stood at 6.1 µM. With `CCN(CC)c1ccc2cc(NC(=O)CCC(=O)O)c(=O)oc2c1` [4-[[7-(diethylamino)-2-keto-chromen-3-yl]amino]-4-keto-butyric acid], the EC50 was found to be 8.31 µM. Same read-out and setting: for `CCOc1cc(C2NCc3ccccc3-n3cccc32)ccc1O` (centres undefined) [4-(5,6-dihydro-4H-pyrrolo[1,2-a][1,4]benzodiazepin-4-yl)-2-ethoxy-phenol;hydrochloride] the value was 15 µM; for `Nc1ccc(N2CCOCC2)c(Cl)c1` [(3-chloro-4-morpholino-phenyl)amine], 0.981 µM.

Regarding `COc1ccc(-c2cn3c(C)c(C(=O)Nc4ccncc4)sc3n2)cc1` [6-(4-methoxyphenyl)-3-methyl-N-(4-pyridyl)imidazo[2,1-b]thiazole-2-carboxamide], the EC50 is over 10 µM. On to `Cc1cc(-c2nnc(-c3ccccc3)c(-c3ccccc3)n2)c(C)o1` [3-(2,5-dimethyl-3-furanyl)-5,6-diphenyl-1,2,4-triazine], for which the EC50 was 6.75 µM. Regarding `CCOc1ccccc1OCCCCCc1c(C)n[nH]c1C` [MLS000043342], the EC50 is 1.27 µM. As to `O=C(Nc1ncc(Br)s1)C(Cc1ccccc1)n1cccc1` (centres undefined) [MLS000119027], the EC50 was 2.92 µM. Still for that read-out and setting: for `O=C(c1ccc(Cl)s1)N1CCN(c2nc3ccccc3s2)CC1` [MLS000100900] the value was over 30 µM; for `Cn1c(-c2c(N)n(C3CCCC3)c3nc4ccccc4nc23)nc2ccccc21` [1-cyclopentyl-3-(1-methyl-2-benzimidazolyl)-2-pyrrolo[3,2-b]quinoxalinamine], 1.56 µM. For `Clc1ccc(NCn2cncn2)nc1`, the EC50 was over 95 µM.

Still in this assay, the particulars now being: inactive by the depositor's call.
Regarding `Cc1noc(C)c1S(=O)(=O)N(CC(=O)Nc1ccc2c(c1)OCCO2)c1ccc(C(C)C)cc1` [MLS000117406], the EC50 was 15.9 µM. On the same count and under the same terms, for `COc1cccc(-c2nnc3sc(C4CCCCC4)nn23)c1` [6-cyclohexyl-3-(3-methoxyphenyl)-[1,2,4]triazolo[3,4-b][1,3,4]thiadiazole] the value was 30.6 µM; for `CCN(CC)S(=O)(=O)c1cccc(S(=O)(=O)c2cccc(S(=O)(=O)N(CC)CC)c2)c1` [3-[3-(diethylsulfamoyl)phenyl]sulfonyl-N,N-diethyl-benzenesulfonamide], 23.4 µM. Turning to `CCOc1cc(-c2noc(-c3cccnc3)n2)ccc1OC` [3-(3-ethoxy-4-methoxy-phenyl)-5-(3-pyridyl)-1,2,4-oxadiazole], the EC50 is 18.2 µM. Regarding `COc1ccc(-c2nc(-c3cccc(C(F)(F)F)c3)no2)cc1OC` [5-(3,4-dimethoxyphenyl)-3-[3-(trifluoromethyl)phenyl]-1,2,4-oxadiazole], the EC50 was 18.8 µM.

With `CCOC(=O)c1oc2ccc(S(=O)(=O)n3nc(-c4ccc(OC)cc4)cc3N)cc2c1C` [5-[5-amino-3-(4-methoxyphenyl)pyrazol-1-yl]sulfonyl-3-methyl-coumarilic acid ethyl ester], the EC50 is 44.3 µM. Regarding `Clc1ccc(CCNc2[nH]cnc3ncnc2-3)cc1` [SMR000017624], the EC50 amounted to 10.6 µM.
